Measured values published in patent publication US20180140572A1, “COMPOSITIONS COMPRISING A CANCER STEMNESS INHIBITOR AND AN IMMUNOTHERAPEUTIC AGENT FOR USE IN TREATING CANCER” (Boston Biomedical, Inc., priority 2015, published 2018).

Experiments:
[1] = system: CD8^+ T cells producing IFN-γ; assay: Tumor antigen-specific T cell immune response (IFN-γ producing spleen CD8+ T cells); type: in vivo, Apc^Min/+ mice; conditions: in the presence of the tumor antigen, vs control samples
Text: All animals were housed in Association for Assessment and Accreditation of Laboratory Animal Care-approved facilities in static microisolator cages. Testing confirmed the mice were pathogen-free and there was no evidence of murine Helicobacter spp. by culture or PCR. Apc^Min/+ mice on a C57BL/6J background were originally obtained from the Jackson Laboratory (Bar Harbor, Me.) and bred in-house to wild-type (wt) C57BL/6J mice to generate Apc^Min/+. 17 week old Apc^Min/+ mice or matched wild-type controls were treated with either vehicle alone, or BBI608 at 200 mg/kg daily by oral gavage (p.o., q.d.) for 4 consecutive days (n=4/group). Body weight and clinical signs were monitored throughout the course of the treatment. On treatment day 4, the animals were sacrificed 4 hours after the last dose and the tumors in the Apc^Min/+ small intestine or a piece of normal intestine, from wild type controls, were harvested.
Spleen tissues were collected from the above APC^Min/+ mice at the time of tumor harvesting. CD8^+ T cells were separated using a CD8^+ T cells isolation kit according to the manufacturer's protocol (STEMCELL Technology). […] Intracellular IFN-γ was then stained with Alexa-647 labeled rat anti-mouse IFN-γ antibody (1:100, BD) and CD8^+ T cells producing IFN-γ were analyzed under the Zeiss fluorescence microscope described above.

[2] = system: CT26 colon tumor; assay: CT26 syngeneic murine colon carcinoma model, tumor volume; type: in vivo, BALB/c mouse; conditions: BBI608 100 mg/kg po qd
Text: All BALB/c mice (Taconic, Hudson, N.Y., USA) were housed in Association for Assessment and Accreditation of Laboratory Animal Care approved facilities in static microisolator cages. Murine MSS-status colon carcinoma CT26 cells (ATCC CRL-2639) and murine breast carcinoma cells 4T1 (ATCC CRL-2539) were purchased from American Type Culture Collection (ATCC, Manassas, Va., USA), and grown in RPMI-1640 medium (ATCC) supplemented with 10% heat-inactivated fetal calf serum. After harvesting during exponential growth, tumors were initiated by subcutaneously implanting 3×10^5 CT26 tumor cells into the right dorsal flank of each 8-12 week old female BALB/c mouse. […] Body weight and clinical signs were monitored throughout the course of the treatment in accordance with the Institutional Animal Care and Use Committee approved protocols. Drug efficacy was analyzed by measuring tumor volume in mm^3 calculated by multiplying 0.5×width^2×length. […]

[3] = system: STAT3 pathway; conditions: read-out: STAT3 pathway activity cellular IC50; cited from earlier work
[4] = system: IDO1; assay: IDO1 expression in colorectal cancer xenograft model (SW480); type: in vivo, mouse; conditions: SW480 xenograft, 0, 1, 2, 4, 8, and 24 hours
Procedure: FIG. 13A and FIG. 13B show an exemplary reduction in IDO1 expression at 0, 1, 2, 4, 8, and 24 hours after treatment of SW480 xenograft colorectal cancer cells (FIG. 13A) and SKOV3 xenograft ovarian cancer cells (FIG. 13B) with an exemplary cancer sternness inhibitor, e.g., BBI608, according to certain embodiments of the present disclosure.
At the end of treatment, tumors were harvested from euthanized mice. Part of the dissected tumors were fixed overnight in 3.7% or 10% neutral buffered formaldehyde at 4° C., and then paraffin embedded, cut to 4-5 micron sections, and affixed onto positively charged slides. After baking and deparaffinization, the slides with tumor or control tissues were incubated in a 10 mM sodium citrate solution pH=6.0 for antigen retrieval at 98° C. […] After mounting in ProLong mounting medium containing DAPI (Invitrogen), the slides were examined on a Zeiss Axio Imager M2 upright fluorescence microscope with a 20× objective and analyzed with Zen software.

CC(=O)c1cc2c(o1)C(=O)c1ccccc1C2=O [BBI608, 2-acetylnaphtho[2,3-b]furan-4,9-dione]
percentage of CD8^+ T cells producing INF-γ [1]: higher percentage
tumor growth inhibition ([2]; by the end of treatment (11 days)): 76%
anti-tumor activity (tumor volume course) ([2]; anti-PD-1 antibody 10 mg/kg iv q4d, 11 days): lasting anti-tumor activity
IC50 [3]: ~250 nM
IDO1 expression level [4]: reduced IDO1 expression level in a time-dependent manner
